Reference: patent US20090246292A1, “ANTIMICROBIAL FORMULATIONS COMPRISING A QUINONE AND A COPPER SALT” (priority 2006, published 2009)
Where two headings read alike, the source gives them in different places.

Legend:
P. acnes NCTC 737 [1] = test: Disc diffusion assay (DDA), also supplemented;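 note: paper disc carrying compound placed on inoculated Wilkins-Chalgren Anaerobe agar pH 6.0, with lipid or NaCl supplement where listed, anaerobic 37 °C for 72 h, inhibition zone diameter read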
Method: The propionibacteria were cultured and maintained on Wilkins-Chalgren Anaerobe Medium (agar and broth) at pH 6.0; all cultures were incubated anaerobically at 37° C. for 72 hours.
(d) Disc Diffusion Assay (DDA)
(§6) A sterile paper disc was impregnated with a sample of the test compound in a suitable solvent and 30 minutes allowed for the solvents to evaporate (where possible). The disc was then placed on an agar plate onto which the test micro-organism had been inoculated. The plate was then incubated under the conditions described above, following which it was examined visually for signs of bacterial growth. […] The diameter of this zone of “inhibition” was measured using a ProtoCOL™ automated zone sizer (Synbiosis, Cambridge, UK).
(f) Supplemented Disc Diffusion Assays
For assays using Propionibacterium spp. strains the supplements used in the examples below were lipid (either Tween™ 80 or triolein, both at 1% v/v) and sodium chloride (100 mM).

P. acnes NCTC 737 [2] = test: Synergy disc diffusion assay (SDDA), also supplemented
P. acnes NCTC 737 [3] = test: Minimum inhibitory concentration (MIC) assay; format: cell-based, Propionibacterium acnes
Excerpt: (§1) (a) Minimum Inhibitory Concentration (MIC) Assay
(§2) The culture media were as described above.
(§3) The assays included both negative (culture medium with no micro-organisms) and positive (culture medium plus diluting solvent plus micro-organism) controls.

S. aureus ATCC 29213 [4] = test: Disc diffusion assay (DDA), also supplemented
Method: The staphylococci were cultured and maintained on Mueller-Hinton Medium (agar and broth) at pH 7.2; cultures were incubated aerobically at 37° C. for 19-20 hours.
(d) Disc Diffusion Assay (DDA)
as §6
(f) Supplemented Disc Diffusion Assays
(§7) For assays using S. aureus ATCC 29213 the supplements used were sodium chloride (100 mM), lipid (Tween™ 80 at 1% v/v) and horse serum (5% v/v).

S. aureus ATCC 29213 [5] = test: Synergy disc diffusion assay (SDDA), also supplemented;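 note: disc diffusion on Mueller-Hinton agar at pH 7.2, aerobic incubation at 37 °C lasting 19-20 h, two compounds assessed jointly for combined antimicrobial effect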
Method: (e) Synergy Disc Diffusion Assay (SDDA)
This is a variation on the DDA method, in which two compounds are tested together for their combined antimicrobial activity.
Two test compounds A and B were placed on a single paper disc and the above described DDA procedure repeated.
(f) Supplemented Disc Diffusion Assays
as §7

S. aureus ATCC 29213 [6] = test: Minimum bactericidal concentration (MBC) assay; format: cell-based, Staphylococcus aureus
Method: (§4) (b) Minimum Bactericidal Concentration (MBC) Assay
(§5) Following incubation they were examined visually for bacterial growth.

S. aureus ATCC 29213 [7] = test: Minimum inhibitory concentration (MIC) assay; format: cell-based, Staphylococcus aureus
Excerpt: as §1, §2, §3

P. acnes NCTC 737 [8] = test: Minimum bactericidal concentration (MBC) assay; format: cell-based, Propionibacterium acnes
Method: as §4, §5

[9] = copper salt alone, 200 μg per disc (silicate 62 μg), 1% (v/v) Tween 80
[10] = copper salt alone, 200 μg per disc (silicate 62 μg), salt and 1% (v/v) Tween 80
[11] = copper salt alone, 200 μg per disc (silicate 62 μg), sodium chloride (100 mM)
[12] = copper salt + TBHQ on one disc, 200 μg of each (silicate 62 μg), salt and lipid (1% (v/v) Tween 80)
[13] = copper salt + TBHQ on one disc, 200 μg of each (silicate 62 μg), unsupplemented
[14] = copper salt + TBHQ vs larger zone of either compound alone, unsupplemented
[15] = copper salt + TBHQ, salt and lipid (1% (v/v) Tween 80)
[16] = copper salt + TBHQ, unsupplemented
[17] = copper salt alone, P. acnes NCTC 737
[18] = copper salt alone, 200 μg per disc (silicate 62 μg), Tween 80 at 1% v/v
[19] = copper salt alone, 200 μg per disc (silicate 62 μg), salt and horse serum (5% v/v)
[20] = copper salt + TBHQ on one disc, 200 μg of each (silicate 62 μg), salt and serum supplements
[21] = copper salt + TBHQ, salt and serum supplements
[22] = copper salt alone, S. aureus ATCC 29213
[23] = quinone + CSL, salt and lipid (1% (v/v) triolein)
[24] = quinone + CSPH, salt and lipid (1% (v/v) triolein)
[25] = quinone + CSL, salt and serum supplements
[26] = quinone + CSPH, salt and serum supplements

Compound: Copper (I) oxide
- DDA + lipid (P. acnes NCTC 737 [1]; [9]): 37.42 mm
- DDA + salt & lipid (P. acnes NCTC 737 [1]; [10]): 43.49 mm
- DDA + salt (P. acnes NCTC 737 [1]; [11]): 44.85 mm
- SL SDDA with TBHQ (P. acnes NCTC 737 [2]; [12]): 51.73 mm
- SDDA with TBHQ (P. acnes NCTC 737 [2]; [13]): 50.06 mm
- SDDA increase (P. acnes NCTC 737 [2]; [14]): 1.25 mm
- SL SDDA area increase (P. acnes NCTC 737 [2]; [15]): 41.48%
- SL SDDA increase (P. acnes NCTC 737 [2]; [15]): 8.24 mm
- SDDA area increase (P. acnes NCTC 737 [2]; [16]): 5.18%
- MIC (P. acnes NCTC 737 [3]; [17]): 1.95 µg/mL
- MIC/MBC ratio (P. acnes NCTC 737 [3]; [17]): 0.06
- DDA + lipid (S. aureus ATCC 29213 [4]; [18]): 0 mm
- DDA + salt & serum (S. aureus ATCC 29213 [4]; [19]): 0 mm
- DDA + salt (S. aureus ATCC 29213 [4]; [11]): 0 mm
- SS SDDA with TBHQ (S. aureus ATCC 29213 [5]; [20]): 45.26 mm
- SDDA with TBHQ (S. aureus ATCC 29213 [5]; [13]): 57.05 mm
- SDDA increase (S. aureus ATCC 29213 [5]; [14]): 16.63 mm
- SS SDDA area increase (S. aureus ATCC 29213 [5]; [21]): 7.37%
- SS SDDA increase (S. aureus ATCC 29213 [5]; [21]): 1.58 mm
- SDDA area increase (S. aureus ATCC 29213 [5]; [16]): 99.21%
- MBC (S. aureus ATCC 29213 [6]; [22]): >250 µg/mL
- MIC (S. aureus ATCC 29213 [7]; [22]): >250 µg/mL
- MBC (P. acnes NCTC 737 [8]; [17]): 31.25 µg/mL

Compound: Copper (II)-D-gluconate
- DDA (P. acnes NCTC 737 [1]): 45.37 mm
- DDA + lipid (P. acnes NCTC 737 [1]; [9]): 27.36 mm
- DDA + salt & lipid (P. acnes NCTC 737 [1]; [10]): 47.04 mm
- DDA + salt (P. acnes NCTC 737 [1]; [11]): 37.93 mm
- SL SDDA with TBHQ (P. acnes NCTC 737 [2]; [12]): 53.19 mm
- SDDA with TBHQ (P. acnes NCTC 737 [2]; [13]): 53.5 mm
- SDDA increase (P. acnes NCTC 737 [2]; [14]): 8.13 mm
- SL SDDA area increase (P. acnes NCTC 737 [2]; [15]): 27.88%
- SL SDDA increase (P. acnes NCTC 737 [2]; [15]): 6.15 mm
- SDDA area increase (P. acnes NCTC 737 [2]; [16]): 39.05%
- MIC (P. acnes NCTC 737 [3]; [17]): 62.5 µg/mL
- MIC/MBC ratio (P. acnes NCTC 737 [3]; [17]): 0.5
- DDA (S. aureus ATCC 29213 [4]): 0 mm
- DDA + lipid (S. aureus ATCC 29213 [4]; [18]): 0 mm
- DDA + salt & serum (S. aureus ATCC 29213 [4]; [19]): 0 mm
- DDA + salt (S. aureus ATCC 29213 [4]; [11]): 0 mm
- SS SDDA with TBHQ (S. aureus ATCC 29213 [5]; [20]): 53.37 mm
- SDDA with TBHQ (S. aureus ATCC 29213 [5]; [13]): 68.32 mm
- SDDA increase (S. aureus ATCC 29213 [5]; [14]): 27.90 mm
- SS SDDA area increase (S. aureus ATCC 29213 [5]; [21]): 49.29%
- SS SDDA increase (S. aureus ATCC 29213 [5]; [21]): 9.69 mm
- SDDA area increase (S. aureus ATCC 29213 [5]; [16]): 185.69%
- MBC (S. aureus ATCC 29213 [6]; [22]): >250 µg/mL
- MIC (S. aureus ATCC 29213 [7]; [22]): >250 µg/mL
- MBC (P. acnes NCTC 737 [8]; [17]): 125 µg/mL

Compound: [Cu][Br] [Copper (I) bromide]
- DDA + lipid (P. acnes NCTC 737 [1]; [9]): 43.92 mm
- DDA + salt & lipid (P. acnes NCTC 737 [1]; [10]): 43.70 mm
- DDA + salt (P. acnes NCTC 737 [1]; [11]): 29.38 mm
- SL SDDA with TBHQ (P. acnes NCTC 737 [2]; [12]): 56.01 mm
- SDDA with TBHQ (P. acnes NCTC 737 [2]; [13]): 54.65 mm
- SDDA increase (P. acnes NCTC 737 [2]; [14]): 15.44 mm
- SL SDDA area increase (P. acnes NCTC 737 [2]; [15]): 64.26%
- SL SDDA increase (P. acnes NCTC 737 [2]; [15]): 12.31 mm
- SDDA area increase (P. acnes NCTC 737 [2]; [16]): 94.26%
- MIC (P. acnes NCTC 737 [3]; [17]): 15.6 µg/mL
- MIC/MBC ratio (P. acnes NCTC 737 [3]; [17]): 0.125
- DDA + lipid (S. aureus ATCC 29213 [4]; [18]): 0 mm
- DDA + salt & serum (S. aureus ATCC 29213 [4]; [19]): 0 mm
- DDA + salt (S. aureus ATCC 29213 [4]; [11]): 0 mm
- SS SDDA with TBHQ (S. aureus ATCC 29213 [5]; [20]): 46.42 mm
- SDDA with TBHQ (S. aureus ATCC 29213 [5]; [13]): 55.37 mm
- SDDA increase (S. aureus ATCC 29213 [5]; [14]): 14.95 mm
- SS SDDA area increase (S. aureus ATCC 29213 [5]; [21]): 12.94%
- SS SDDA increase (S. aureus ATCC 29213 [5]; [21]): 2.74 mm
- SDDA area increase (S. aureus ATCC 29213 [5]; [16]): 87.65%
- MBC (S. aureus ATCC 29213 [6]; [22]): >250 µg/mL
- MIC (S. aureus ATCC 29213 [7]; [22]): >250 µg/mL
- MBC (P. acnes NCTC 737 [8]; [17]): 125 µg/mL

Compound: Cc1cc(O)ccc1O [2-methyl-p-hydroquinone]
- DDA + salt & lipid (P. acnes NCTC 737 [1]; Example 8, single compound, salt and 1% (v/v) triolein): 35.18 (±4.06) mm
- SL SDDA area increase (P. acnes NCTC 737 [2]; [23]): 35.49%
- SL SDDA increase (P. acnes NCTC 737 [2]; [23]): 6.98 mm
- SL SDDA with CSL (P. acnes NCTC 737 [2]; [23]): 49.54 (±0.81) mm
- SDDA area increase (P. acnes NCTC 737 [2]; quinone + CSL, unsupplemented): 24.46%
- SDDA increase (P. acnes NCTC 737 [2]; quinone + CSL, unsupplemented): 4.72 mm
- SL SDDA area increase (P. acnes NCTC 737 [2]; [24]): 17.67%
- SL SDDA increase (P. acnes NCTC 737 [2]; [24]): 4.20 mm
- SL SDDA with CSPH (P. acnes NCTC 737 [2]; [24]): 53.74 (±1.75) mm
- SDDA area increase (P. acnes NCTC 737 [2]; quinone + CSPH, unsupplemented): 24.24%
- SDDA increase (P. acnes NCTC 737 [2]; quinone + CSPH, unsupplemented): 4.82 mm
- DDA + salt & serum (S. aureus ATCC 29213 [4]; Example 9, single compound, salt and serum): 26.91 (±0.00) mm
- SS SDDA area increase (S. aureus ATCC 29213 [5]; [25]): 90.18%
- SS SDDA increase (S. aureus ATCC 29213 [5]; [25]): 10.20 mm
- SS SDDA with CSL (S. aureus ATCC 29213 [5]; [25]): 37.11 (±1.11) mm
- SDDA area increase (S. aureus ATCC 29213 [5]; quinone + CSL, unsupplemented): 112.09%
- SDDA increase (S. aureus ATCC 29213 [5]; quinone + CSL, unsupplemented): 11.76 mm
- SS SDDA area increase (S. aureus ATCC 29213 [5]; [26]): 74.72%
- SS SDDA increase (S. aureus ATCC 29213 [5]; [26]): 8.66 mm
- SS SDDA with CSPH (S. aureus ATCC 29213 [5]; [26]): 35.57 (±0.62) mm
- SDDA area increase (S. aureus ATCC 29213 [5]; quinone + CSPH, unsupplemented): 140.93%
- SDDA increase (S. aureus ATCC 29213 [5]; quinone + CSPH, unsupplemented): 14.23 mm

Compound: CC(=O)[O-].[Cu+] [Copper (I) acetate]
- DDA (P. acnes NCTC 737 [1]): 52.04 mm
- DDA + lipid (P. acnes NCTC 737 [1]): 45.46 mm
- DDA + salt (P. acnes NCTC 737 [1]): 49.48 mm
- DDA + salt & lipid (P. acnes NCTC 737 [1]): 52.15 mm
- SDDA area increase (P. acnes NCTC 737 [2]): 84.62%
- SDDA increase (P. acnes NCTC 737 [2]): 18.67 mm
- SDDA with TBHQ (P. acnes NCTC 737 [2]): 70.71 mm
- SL SDDA area increase (P. acnes NCTC 737 [2]): 59.77%
- SL SDDA increase (P. acnes NCTC 737 [2]): 13.77 mm
- SL SDDA with TBHQ (P. acnes NCTC 737 [2]): 65.91 mm
- MIC (P. acnes NCTC 737 [3]): 7.8 µg/mL
- MIC/MBC ratio (P. acnes NCTC 737 [3]): 0.25
- DDA (S. aureus ATCC 29213 [4]): 0 mm
- DDA + lipid (S. aureus ATCC 29213 [4]): 0 mm
- DDA + salt (S. aureus ATCC 29213 [4]): 0 mm
- DDA + salt & serum (S. aureus ATCC 29213 [4]): 0 mm
- SDDA area increase (S. aureus ATCC 29213 [5]): 16.25%
- SDDA increase (S. aureus ATCC 29213 [5]): 3.16 mm
- SDDA with TBHQ (S. aureus ATCC 29213 [5]): 43.58 mm
- SS SDDA area increase (S. aureus ATCC 29213 [5]): −51.82%
- SS SDDA increase (S. aureus ATCC 29213 [5]): −13.36 mm
- SS SDDA with TBHQ (S. aureus ATCC 29213 [5]): 30.32 mm
- MBC (S. aureus ATCC 29213 [6]): >250 µg/mL
- MIC (S. aureus ATCC 29213 [7]): >250 µg/mL
- MBC (P. acnes NCTC 737 [8]): 31.25 µg/mL
